Test results: ChEMBL document CHEMBL1201862, “PubChem BioAssay data set” (2004)
The source made the active and inactive calls.

What was measured:
[1] = target: T1, Heat shock factor protein 1 (Mus musculus, UniProt P38532); assay: HSF1 potentiators in luciferase reporter cells, confirmation, cell-based, NIH3T3, luminescence, dose retest (AID 435004); format: functional;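 further: stress induced by proteasome inhibitor MG132 added 30 min after compound; luciferase reporter driven by HSF1 response element in NIH3T3 cells; actives raise luminescence as potentiators of the MG132 stress response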
T1 sequence (P38532 whole entry): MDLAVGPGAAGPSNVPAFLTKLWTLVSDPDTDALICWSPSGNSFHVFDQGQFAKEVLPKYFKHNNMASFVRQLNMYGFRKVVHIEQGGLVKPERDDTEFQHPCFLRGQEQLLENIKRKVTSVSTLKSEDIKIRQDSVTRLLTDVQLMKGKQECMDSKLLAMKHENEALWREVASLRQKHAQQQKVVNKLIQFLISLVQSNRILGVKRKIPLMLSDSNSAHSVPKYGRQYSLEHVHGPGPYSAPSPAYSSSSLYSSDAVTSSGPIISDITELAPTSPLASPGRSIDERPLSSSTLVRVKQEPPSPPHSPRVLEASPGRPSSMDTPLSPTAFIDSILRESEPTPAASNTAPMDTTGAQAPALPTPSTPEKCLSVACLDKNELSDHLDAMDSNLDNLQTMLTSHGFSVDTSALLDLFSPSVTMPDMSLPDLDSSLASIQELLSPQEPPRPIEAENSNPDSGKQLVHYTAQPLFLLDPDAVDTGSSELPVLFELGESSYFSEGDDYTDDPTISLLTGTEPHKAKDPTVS

[2] = target: Cytochrome P450 2C9 (Homo sapiens, UniProt P11712)
[3] = HEp-2 cell cytotoxicity, dose response, cytotoxicity control for RSV inhibitor project, HTS (AID 2410); format: functional; settings: human respiratory syncytial virus
[4] = target: T2, Streptokinase A (Streptococcus pyogenes serotype M1, UniProt P10520); assay: S. pyogenes streptokinase expression inhibitors, potency, dose response, plasminogen activation absorbance, OD405 (AID 1914); format: functional, Streptococcus pyogenes M1 GAS;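 further: secreted streptokinase activity via plasminogen activation per viability signal from cell pellet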
T2 sequence (P10520 whole entry): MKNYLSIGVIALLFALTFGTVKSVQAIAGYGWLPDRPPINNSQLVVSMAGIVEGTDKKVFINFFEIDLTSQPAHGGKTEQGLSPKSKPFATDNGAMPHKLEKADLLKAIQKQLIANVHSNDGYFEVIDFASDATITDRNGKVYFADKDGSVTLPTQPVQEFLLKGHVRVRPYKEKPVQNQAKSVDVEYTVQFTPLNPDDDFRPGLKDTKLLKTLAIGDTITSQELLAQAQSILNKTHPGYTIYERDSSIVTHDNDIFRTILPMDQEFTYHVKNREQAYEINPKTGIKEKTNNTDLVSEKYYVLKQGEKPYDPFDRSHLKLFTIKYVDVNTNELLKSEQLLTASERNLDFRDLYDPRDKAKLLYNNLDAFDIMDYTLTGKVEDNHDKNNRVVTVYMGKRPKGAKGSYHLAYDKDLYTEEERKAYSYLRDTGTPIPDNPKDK

[5] = tested on: Streptococcus; assay: Group A Streptococcus viability loss, dose response, counter-screen for streptokinase expression inhibitor project, luminescence, BacTiterGlo (AID 1915); format: functional, organism-based;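 further: potency for reduction of bacterial viability or growth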
[6] = tested on: Streptococcus sp. 'group A'; assay: growth inhibition of control SK(-) GAS strain, dose response, counter-screen for streptokinase expression inhibitor project, luminescence, kanamycin, BacTiterGlo, confirmation (AID 1900); format: functional, organism-based
[7] = tested on: H4; assay: Luminescence Cell-Based Dose Response HTS to Identify Activators of 5'UTR Stem-Loop Driven Prion Protein mRNA Translation in H4 Neuroglioblastoma Cells. [Related pubchem assays: 1829 (Project Summary), 1814 (Primary HTS)]; format: functional; settings: Homo sapiens
[8] = Luminescence Cell-Based Dose Retest to Confirm Inhibitors of Cancer Stem Cells. [Related pubchem assays (depositor defined):AID2717, AID2721]; format: functional; settings: Homo sapiens
[9] = C. albicans growth with fluconazole, confirmation, fluorescence, retest (AID 2467); format: functional, cell-based
[10] = NIH-3T3 fibroblast cytotoxicity, dose response, cytotoxicity control, cell-based, fluorescence, Alamar Blue, secondary assay (AID 2327); format: functional;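 further: NIH-3T3 mouse fibroblasts cultured with fluconazole at 8 µg/mL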
[11] = target: Cytochrome P450 2C19 (Homo sapiens, UniProt P33261); assay: Cytochrome panel assay with activity outcomes. Panel member name: p450-cyp2c19 Compounds with AC50 equal or less than 10 uM are considered active; format: functional
Cytochrome P450 2C19, sequence (P33261 whole entry): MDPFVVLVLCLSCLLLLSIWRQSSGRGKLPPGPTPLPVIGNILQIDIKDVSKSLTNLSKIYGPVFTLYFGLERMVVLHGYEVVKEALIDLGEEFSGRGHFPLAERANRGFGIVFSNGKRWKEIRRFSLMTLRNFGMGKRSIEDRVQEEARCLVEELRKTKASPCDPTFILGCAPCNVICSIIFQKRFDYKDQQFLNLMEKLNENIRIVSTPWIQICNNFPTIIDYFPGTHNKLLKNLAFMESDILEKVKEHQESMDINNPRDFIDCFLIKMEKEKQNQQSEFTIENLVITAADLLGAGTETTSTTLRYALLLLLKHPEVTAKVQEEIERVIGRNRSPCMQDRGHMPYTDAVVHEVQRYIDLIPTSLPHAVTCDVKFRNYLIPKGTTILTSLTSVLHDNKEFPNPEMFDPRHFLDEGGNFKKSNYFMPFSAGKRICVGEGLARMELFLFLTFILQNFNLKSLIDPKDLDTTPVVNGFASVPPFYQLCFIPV

Cytochrome P450 2C9, sequence (P11712 whole entry): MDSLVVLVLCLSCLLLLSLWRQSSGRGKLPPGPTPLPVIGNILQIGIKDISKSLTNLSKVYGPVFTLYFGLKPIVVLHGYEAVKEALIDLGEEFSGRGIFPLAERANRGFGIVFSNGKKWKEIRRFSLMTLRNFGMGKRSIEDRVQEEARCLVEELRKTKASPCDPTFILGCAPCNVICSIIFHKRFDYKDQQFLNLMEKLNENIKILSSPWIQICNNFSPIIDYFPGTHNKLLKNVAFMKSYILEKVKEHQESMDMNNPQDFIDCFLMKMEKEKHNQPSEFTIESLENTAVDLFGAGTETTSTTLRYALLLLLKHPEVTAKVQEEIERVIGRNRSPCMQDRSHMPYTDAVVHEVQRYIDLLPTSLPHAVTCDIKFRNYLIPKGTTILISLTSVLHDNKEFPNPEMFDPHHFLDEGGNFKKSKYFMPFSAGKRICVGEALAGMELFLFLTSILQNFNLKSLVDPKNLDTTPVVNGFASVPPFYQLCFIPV

Compound: COc1ccc(CNS(=O)(=O)c2cc(CN3C(=O)c4cccnc4C3=O)ccc2OC)cc1
- EC50 [1]: > 260 µM (inactive)

Compound: CC(=O)[C@@]1(O)CC[C@H]2[C@H]3C[C@@H](C)C4=CC(=O)C=C[C@]4(C)[C@@]3(F)[C@@H](O)C[C@]21C
- AC50 [2]: 12.6 µM (inconclusive)

Compound: CC(C)SC1=NC(/C=C/c2ccc(Cl)cc2Cl)=CC(C)(C)N1
- EC50 [1]: 38.9 µM (active)

Compound: COc1cccc(-c2ccc(SCC(=O)c3ccccc3)nn2)c1
- CC50 [3]: 35.2 µM (active)

Compound: Cc1nn(-c2ccccc2)c(Cl)c1/C=C1\C(=O)N(C)C(=S)N1C
- CC50 [3]: 26.6 µM (active)

Compound: Cc1ccc(S(=O)(=O)NCC(=O)OCC(=O)N2N=C(c3ccc(Cl)cc3)CC2c2ccco2)cc1C (stereo unspecified)
- EC50 [4]: 22.4 µM (active)
- EC50 [5]: 61 µM (active)
- EC50 [6]: 18.6 µM (active)

Compound: Cc1c(C(=O)NCCN(C)C)oc2ccc(S(=O)(=O)N3CCCC3)cc12
- EC50 [1]: > 260 µM (inactive)

Compound: N#Cc1c(F)cccc1N1CCOCC1
- CC50 [3]: 23.6 µM (active)

Compound: Cc1nc2ccccc2c(N)c1C(=O)/C=C/c1ccccc1
- CC50 [3]: 9.1 µM (active)

Compound: COc1cc(/C=C/C(=O)N2CCOCC2)ccc1OCc1ccccc1
- EC50 [1]: > 260 µM (inactive)

Compound: Cc1cccc2cc(CN(Cc3ccco3)C(c3nnnn3CCc3ccccc3)C(C)C)c(O)nc12 (stereo unspecified)
- EC50 [1]: 70.3 µM (active)

Compound: Cn1c(-c2ccc(F)cc2)cnc1NCc1cccc(F)c1
- AC50 [2]: 39.8 µM (inconclusive)

Compound: CC(NC(=O)Cn1c(=O)[nH]c2ccsc2c1=O)C12CC3CC(CC(C3)C1)C2 (stereo unspecified)
- EC50 [4]: > 150 µM (not active)
- EC50 [5]: > 150 µM (not active)
- EC50 [6]: > 150 µM (not active)

Compound: c1ccc(Nc2nc(N3CCCCC3)nc(N3CCCCC3)n2)cc1
- EC50 [4]: > 150 µM (not active)
- EC50 [5]: 33.9 µM (active)
- EC50 [6]: 11.7 µM (active)

Compound: CN(C)C(=O)c1ccc(-c2ccc3ncnc(N(C)C)c3c2)cc1
- AC50 [2]: 1.26 µM (inconclusive)

Compound: CC(=O)OCc1c(C(F)(F)F)nn(C)c1Sc1ccccc1
- AC50 [2]: 28.2 µM (inconclusive)

Compound: COC(=O)[C@@H]1CC[C@H](C)[C@@H](c2ccc(C)cc2)N1C(=O)c1ccc(/C=N\OCC[C@@H]2C=C[C@H](OC(C)=O)[C@H](COC(C)=O)O2)cc1
- AC50 [2]: 3.98 µM (inconclusive)

Compound: CCOC(=O)N1CCN(S(=O)(=O)c2cc(Cl)c(OC)cc2Cl)CC1
- EC50 [1]: > 260 µM (inactive)

Compound: COC(=O)c1c(C)nc(O)nc1SCc1cccc2ccccc12
- CC50 [3]: > 50 µM (active)

Compound: O=C(Nc1cccc(F)c1)N1CCC2(CC1)CCN(C(=O)Oc1ccccc1)CC2
- AC50 [2]: 39.8 µM (inconclusive)

Compound: COc1ccc(CN2CC(C(=O)NCCCN3CCOCC3)CC2=O)cc1 (stereo unspecified)
- EC50 [1]: > 260 µM (inactive)

Compound: CCS(=O)(=O)Nc1ccc2[nH]c(O)nc2c1
- EC50 [1]: > 260 µM (inactive)

Compound: O=C(Nc1ccsc1C(=O)O)c1cccc(Oc2ccccc2)c1
- CC50 [3]: 18.3 µM (active)

Compound: CC(C)c1ccc(/C=N/NC(=O)c2cccc(Cl)c2)cc1
- EC50 [7]: 43.1 µM (active)
- AC50 [8]: 2.88 µM (active)

Compound: CC(/C=C/c1ccc(N(C)C)cc1)=N/NC1=NC(=O)CC(C(=O)Nc2ccc(Cl)cc2)S1 (stereo unspecified)
- EC50 [4]: > 150 µM (not active)
- EC50 [5]: 8.65 µM (active)
- EC50 [6]: 2.94 µM (active)

Compound: O=C(N/N=C/c1cc([N+](=O)[O-])ccc1O)C(O)(c1ccccc1)c1ccccc1
- EC50 [4]: > 150 µM (not active)
- EC50 [5]: 9.11 µM (active)
- EC50 [9]: 2.29 µM (active)
- EC50 [6]: 3.11 µM (active)
- EC50 [10]: > 150 µM (inactive)

Compound: Cc1ccc(/C=N/NC2=NC(=O)CS2)o1
- CC50 [3]: 21.5 µM (active)

Compound: C[N+]1(C)C[C@@H](O)C[C@@H]1C(=O)[O-] [BETONICINE]
- AC50 [11]: inconclusive
